Laboratory results from patent US10842152B2, “Isothiazolo-based bicycles, processes for their preparation and their use as herbicides and/or plant growth regulators” (Bayer CropScience Aktiengesellschaft, priority 2017, dated 2020).

Key:
MATIN [1] = test: Herbicidal effect post-emergence; type: in vivo, Matricaria inodora; settings: 320 g/ha, visual grading after ca. 3 weeks (Table 7)
Description: (§1) Seeds of mono- and dicotyledonous weed plants and crop plants are sown in wood-fiber pots in sandy loam, covered with soil and grown in a greenhouse under controlled growth conditions. 2 to 3 weeks after sowing, the test plants are sprayed in the single-leaf stage. The compounds according to the invention, formulated in form of wettable powders (WP) or as emulsifiable concentrates (EC), are then sprayed onto the green plant parts as aqueous suspension or emulsion, with the addition of 0.5% of an additive, at an application rate of 600 l of water/ha (converted). After the test plants had been in the greenhouse for ca. 3 weeks under optimum growth conditions, the effect of the preparations is assessed visually in comparison with untreated controls (herbicidal effect in percent (%): 100% effect=plants have died off, 0% effect=as control plants).

MATIN [2] = test: Herbicidal effect pre-emergence; type: in vivo, Matricaria inodora; settings: 320 g/ha, visual grading after ca. 3 weeks vs untreated controls
Description: (§2) Seeds of mono- and dicotyledonous weed plants and crop plants are sown in wood-fiber pots in sandy loam and covered with soil. The compounds according to the invention, formulated in the form of wettable powders (WP) or as emulsifiable concentrates (EC), are then applied to the surface of the covering soil as aqueous suspension or emulsion, with the addition of 0.5% of an additive, at an application rate of 600 l of water/ha (converted).
(§3) Following treatment, the pots are placed in a greenhouse and kept under optimum growth conditions for the test plants. The visual grading of the damage to the test plants is carried out after ca. 3 weeks in comparison to untreated controls (herbicidal effect in percent (%): 100% effect=plants have died off, 0% effect=as control plants).

[3] = system: Polygonum convolvulus (=Fallopia convolvulus); test: Herbicidal effect post-emergence; type: in vivo; settings: 320 g/ha, visual grading after ca. 3 weeks (Table 7)
Description: (§4) Herbicidal activities of the compounds of the formulae (G1) or (G2) according to the invention were investigated against the following harmful plants: • ALOMY=Alopecurus myosuroides • ECHCG=Echinochloa crus-galli • SETVI=Setaria viridis • ABUTH=Abutilon theophrasti • AMARE=Amaranthus retroflexus • PHBPU=Pharbitis purpurea • POLCO=Polygonum convolvulus (=Fallopia convolvulus) • STEME=Stellaria media • VIOTR=Viola tricolor
as §1

Stellaria media [4] = test: Herbicidal effect post-emergence; type: in vivo; settings: 320 g/ha, visual grading after ca. 3 weeks (Table 7)
Description: as §4, §1

Viola tricolor [5] = test: Herbicidal effect post-emergence; type: in vivo; settings: 320 g/ha
Description: as §4, §1

Amaranthus retroflexus [6] = test: Herbicidal effect post-emergence; type: in vivo; settings: 320 g/ha
Description: as §4, §1

Setaria viridis [7] = test: Herbicidal effect post-emergence; type: in vivo; settings: 320 g/ha
Description: as §4, §1

Pharbitis purpurea = test: Herbicidal effect post-emergence; type: in vivo; settings: 320 g/ha, visual grading after ca. 3 weeks (Table 7)
Description: as §4, §1

Alopecurus myosuroides = test: Herbicidal effect pre-emergence; type: in vivo; settings: 320 g/ha, visual grading after ca. 3 weeks vs untreated controls
Description: as §4, §2, §3

Stellaria media [8] = test: Herbicidal effect pre-emergence; type: in vivo; settings: 320 g/ha, visual grading after ca. 3 weeks vs untreated controls
Description: as §4, §2, §3

Viola tricolor [9] = test: Herbicidal effect pre-emergence; type: in vivo; settings: 320 g/ha, visual grading after ca. 3 weeks vs untreated controls
Description: as §4, §2, §3

Amaranthus retroflexus [10] = test: Herbicidal effect pre-emergence; type: in vivo; settings: 320 g/ha, visual grading after ca. 3 weeks vs untreated controls
Description: as §4, §2, §3

Setaria viridis [11] = test: Herbicidal effect pre-emergence; type: in vivo; settings: 320 g/ha, visual grading after ca. 3 weeks vs untreated controls
Description: as §4, §2, §3

[12] = visual grading after ca. 3 weeks (Table 7)
[13] = visual grading after ca. 3 weeks (Table 9)

SMILES | herbicidal effect MATIN (MATIN [1]) [%] | herbicidal effect MATIN (MATIN [2]) [%] | herbicidal effect POLCO [3] [%] | herbicidal effect STEME (Stellaria media [4]) [%] | herbicidal effect VIOTR (Viola tricolor [5]; [12]) [%] | herbicidal effect AMARE (Amaranthus retroflexus [6]; [12]) [%] | herbicidal effect SETVI (Setaria viridis [7]; [12]) [%] | herbicidal effect PHBPU (Pharbitis purpurea) [%] | herbicidal effect ALOMY (Alopecurus myosuroides) [%] | herbicidal effect STEME (Stellaria media [8]) [%] | herbicidal effect VIOTR (Viola tricolor [9]) [%] | herbicidal effect AMARE (Amaranthus retroflexus [10]) [%] | herbicidal effect SETVI (Setaria viridis [11]) [%] | herbicidal effect VIOTR (Viola tricolor [5]; [13]) [%] | herbicidal effect AMARE (Amaranthus retroflexus [6]; [13]) [%] | herbicidal effect SETVI (Setaria viridis [7]; [13]) [%]
O=C(Nc1nsc2c(=O)n(CC3CCCCC3Cl)cc(Cl)c12)C(F)(F)C(F)(F)F (racemic) [Example I-161] | 80 | 100 | 100 | 100 | 100 | 100 | 100 | 100 | 100 | 100 | 100 | 100 | 100 |  |  | 
Nc1nsc2c(=O)n(Cc3cc(F)c(F)cc3F)cc(Cl)c12 [Example I-136] | 100 | 90 | 100 | 100 | 100 | 100 | 90 | 100 | 100 | 100 | 100 | 100 | 100 |  |  | 
O=C(Nc1nsc2c(=O)n(CC3CCCCC3Cl)cc(Cl)c12)C(F)F (racemic) [Example I-160] | 80 | 100 | 100 | 100 | 100 | 100 | 100 | 100 | 100 | 100 | 100 | 100 | 100 |  |  | 
O=C(Nc1nsc2c(=O)n(CC3CCCCC3)cc(Br)c12)C(F)(F)C(F)(F)F [Example I-077] |  | 90 |  |  |  |  |  |  | 100 | 100 | 100 | 100 | 100 | 90 | 100 | 90
COCc1cc2c(N)nsc2c(=O)n1CC1CCCCC1 [Example I-028] |  | 90 |  |  |  |  |  |  | 90 | 100 | 100 | 90 | 100 |  |  | 
O=C(Nc1nsc2c(=O)n(CC3CCCCC3)cc(Cl)c12)C(F)(F)C(F)(F)F [Example I-081] |  | 100 |  |  |  |  |  |  | 100 | 100 | 100 | 100 | 100 | 100 | 100 | 100
CCC(=O)Nc1nsc2c(=O)n(CC3CCCCC3)cc(F)c12 [Example I-128] | 100 | 100 | 100 | 100 | 100 | 100 | 100 | 100 | 100 | 100 | 100 | 100 | 100 |  |  | 
Nc1nsc2c(=O)n(CC3CCCCC3Cl)cc(Cl)c12 (racemic) [Example I-156] | 80 | 100 | 100 | 100 | 100 | 100 | 100 | 100 | 100 | 100 | 100 | 100 | 100 |  |  | 
CC(C)(C)OC(=O)OC1CN(CC2CCCCC2)C(=O)c2snc(N)c21 (centres unmarked) [Example I-138] |  | 90 |  |  |  |  |  |  | 100 | 100 | 100 | 100 | 100 | 100 | 100 | 80
CCC(=O)Nc1nsc2c(=O)n(CC3CCCCC3)c(CO)cc12 [Example I-048] |  | 90 |  |  |  |  |  |  | 80 | 100 | 100 | 100 | 100 | 100 | 100 | 100
CCC(=O)Nc1nsc2c(=O)n(CC3CCCCC3)c(CC)cc12 [Example I-029] |  | 90 |  |  |  |  |  |  | 90 | 90 | 100 | 100 | 90 |  |  | 
CC(C)c1cc2c(N)nsc2c(=O)n1CC1CCCCC1 [Example I-023, 3-amino-6-(cyclohexylmethyl)-5-isopropyl-isothiazolo[5,4-c]pyridin-7-one] |  |  |  |  |  |  |  |  |  |  | 90 | 100 | 90 | 100 | 100 | 90
C#Cc1cn(CC2CCCCC2)c(=O)c2snc(N)c12 [Example I-070] |  |  |  |  |  |  |  |  |  |  | 100 | 100 | 100 | 100 | 100 | 100
Nc1nsc2c(=O)n(CC3CCCCC3)cc(Br)c12 [Example I-054, 3-amino-4-bromo-6-(cyclohexylmethyl)isothiazolo[5,4-c]pyridin-7-one] |  | 100 |  |  |  |  |  |  | 90 | 100 | 100 | 100 | 100 | 100 | 100 | 100
Nc1nsc2c(=O)n(CC3CCCCC3)c(CO)cc12 [Example I-036] |  |  |  |  |  |  |  |  |  |  | 80 | 100 | 90 | 100 | 90 | 100
O=C(Nc1nsc2c(=O)n(CC3CCCCC3)c(CO)cc12)C(F)(F)C(F)(F)F [Example I-047] |  | 90 |  |  |  |  |  |  | 80 | 100 | 100 | 100 | 90 | 100 | 90 | 90
O=C(Nc1nsc2c(=O)n(CC3CCCCC3)cc(Br)c12)C(F)(F)F [Example I-088] |  | 100 |  |  |  |  |  |  | 100 | 100 | 100 | 100 | 100 | 100 | 100 | 100
O=C(Nc1nsc2c(=O)n(CC3CCCCC3)cc(Cl)c12)C(F)(F)F [Example I-086] |  | 100 |  |  |  |  |  |  | 100 | 100 | 100 | 100 | 100 | 100 | 100 | 100
C/C=C/c1cn(CC2CCCCC2)c(=O)c2snc(N)c12 [Example I-118] |  |  |  |  |  |  |  |  |  |  | 80 | 90 | 90 | 100 | 100 | 100
